According to patent publication US20220273658A1, “SMALL MOLECULE LIVER X RECEPTOR MODULATORS AND USES THEREOF” (University of Houston System, priority 2019, published 2022):

Legend:
PDAC cells [1] = experiment: cell viability with glutaminase inhibitor BPTES and 1E5; type: cell-based, human; conditions: BPTES alone
Text: TCA cycle intermediates act as anaplerotic substrate for gluconeogenesis and lipogenesis. […] GOT2 converts glutamine-derived glutamate to alpha-KG. During this process oxaloacetate is converted to aspartate which is required to maintain redox homeostasis. Studies have shown that inhibition of GOT2 in PDAC promotes senescence.

[2] = pre-clinical testing; cited from earlier work
[3] = system: BxPC-3, Mia-PaCa-2, and PANC-1; experiment: cell proliferation, live cells quantified by trypan blue exclusion; type: cell-based, human; conditions: increasing GW3965 concentrations; all three cell lines
Experimental: (§1) To determine the effects of LXR ligands on PDAC cell proliferation, cells were treated with synthetic LXR agonist GW3965 and live cells were quantified using trypan blue exclusion assays. […] FIGS. 8A, 8B, and 8C show dose-dependent decreases in cell proliferation in BxPC-3, Mia-PaCa-2, and PANC-1, respectively upon treatment with increasing GW3965 concentrations. […] Clonogenic assays were also employed to evaluate the effects of long-term LXR ligand treatment on cell proliferation and colony formation. […] These findings indicate that LXRs are involved in PDAC cell proliferation and targeting LXRs with ligands perturb their normal functions in cell proliferation.

PDAC cell lines [4] = experiment: tetrazolium salt reduction (WST) assay in PDAC cell lines; type: cell-based, human; conditions: GW3965, WST assay
Experimental: as §1
(§2) The initial identification and subsequent characterization of the two novel LXR ligands and their derivative compounds was carried out in screens in three human pancreatic cancer cell and one non-transformed human pancreatic epithelial cell line in three or more replicate experiments for each cell line using the WST tetrazolium salt reduction assays.

PDAC cell lines [5] = experiment: MTS assay of overall cell metabolic rate; type: cell-based, human; conditions: increasing concentrations of GW3965
PDAC cell lines [6] = experiment: clonogenic assay, colony formation; type: cell-based, human; conditions: long-term treatment, each cell line
Experimental: as §1

BxPC-3-luc2 cells = experiment: orthotopic xenograft mouse model of pancreatic cancer; type: in vivo
Text: Data from studies using cultured cancer cell lines indicate that LXR agonists have anti-proliferative effects on PDAC cells by disrupting cell cycle progression and expression of key regulatory proteins and growth pathways. To determine the effects of ligands in vivo using a live imaging system, BxPC-3 cells engineered with […] firefly luciferase gene (BxPC-3-luc2) were obtained from a commercial source (Perkin Elmer) and then validated for luciferase expression and response to GW3965 treatment in culture. […] NCr athymic nude mice (n=5 per treatment group) were orthotopically injected with BxPC-3-luc2 cells and then gavaged daily with GW3965 dissolved in 0.5% methylcellulose or vehicle only. Animals were anesthetized, injected with luciferin, and imaged weekly to monitor and quantify tumor growth. […] Experiments were terminated after two weeks due to the morbidity associated with the tumor burden in test animals. […] Statistically significant differences in additive effects as compared to single compound treatments are denoted with asterisks.

[7] = system: LXR target genes SREBF1c, ABCA1, and ABCG1; experiment: expression of LXR target genes in pancreatic cancer cell lines; type: cell-based, human; conditions: for expression of LXR target genes: three pancreatic cancer cell lines
Text: To characterize the activity of the newly discovered ligands, the expression of LXR target genes SREBF1c, ABCA1, and ABCG1 was examined following treatment with vehicle, synthetic agonist GW3965, and Compounds 1E5 and 3A4. […] Basal expression of SREBF1c, the canonical LXR target gene involved in the regulation of glucose and lipid metabolism, was disrupted by the addition of novel LXR ligands, whereas their expression was induced following treatment with synthetic agonist GW3965 in all three pancreatic cancer cell lines tested, whereas the effects on ABCA1 and ABCG1 varied between the two novel ligands and across the cell lines.
(§3) To elucidate mechanisms of inverse agonism by the novel ligands, TR-FRET experiments were conducted to determine the effects of 1E5 and 3A4 on the recruitment of NR co-activators and co-repressors. […] In addition to their functions as inverse agonists, extended treatments with 1E5 and 3A4 also destabilized or decreased LXR proteins.

[8] = system: myeloid-derived suppressor cells (MDSCs); conditions: in vivo; cited from earlier work
HPNE cells = experiment: growth of non-transformed pancreatic epithelial cells (WST screen; FIG. 32D); type: cell-based, human; conditions: FIG. 32(D)
Experimental: as §2
(§4) The synthesis and characterization of KD-01-39, a derivative of 3A4, have not been described previously.

KPC tumor cells = experiment: growth of KPC tumor cells from mouse model of PDAC; type: cell-based
Text: The effects of the ligands and derivatives on the growth of PDAC cells were further validated by cell counting and clonogenic assays.

[9] = system: LXR ligand-binding domain; experiment: TR-FRET assay of co-activator and co-repressor peptide recruitment; type: biochemical
Experimental: as §3, §4

LXR-LBD = experiment: differential scanning fluorimetry; type: binding
Text: as §4

PDAC cells [10] = experiment: treatment of PDAC cells with KD-01-39 (FIG. 32); type: cell-based, human; conditions: all cancer lines tested
Text: as §4

MDSC and CD8+ T-cells = conditions: in vivo; cited from earlier work
PDAC = PDAC patients; cited from earlier work

Q: With `O=C(Cc1ccccc1)Nc1nnc(CCSCCc2nnc(NC(=O)Cc3ccccc3)s2)s1` [BPTES, reference compound] as the molecule, how does the “pancreatic cancer cell viability” value (PDAC cells [1]) read?
A: reduced pancreatic cancer cell viability

Q: For `O=S(=O)(c1ccccc1)N(CC(F)(F)F)c1ccc(C(O)(C(F)(F)F)C(F)(F)F)cc1` [Compound T0901317], which “circulating and liver triglyceride levels” value [2] is on record?
A: increased circulating and liver triglyceride levels

Q: For `O=C(O)Cc1cccc(OCCCN(Cc2cccc(C(F)(F)F)c2Cl)CC(c2ccccc2)c2ccccc2)c1` [GW3965], which cell proliferation [3] is on record?
A: significantly inhibited

Q: What about the “growth of PDAC cell lines” value (PDAC cell lines [4]) of the same molecule?
A: suppressed the growth of PDAC cell lines in a dose-dependent manner

Q: What about the “overall metabolism (MTS)” value (PDAC cell lines [5]) of the same molecule?
A: dose-dependent drop in overall metabolism

Q: What about the colony formation (PDAC cell lines [6]) of the same molecule?
A: strongly inhibited colony formation

Q: And the “tumor growth (luciferase signal)” value (BxPC-3-luc2 cells; 40 mg/kg and 80 mg/kg, daily gavage, one and two weeks)?
A: reduced tumor growth

Q: What about the “tumor size, post-mortem examination” value (BxPC-3-luc2 cells; control vs treated animals) of the same molecule?
A: significant differences in tumor size

Q: And the bioavailability following ingestion (BxPC-3-luc2 cells; daily gavage)?
A: confirmed the bioavailability

Q: And the toxicity following ingestion (BxPC-3-luc2 cells; mouse, in vivo)?
A: low toxicity

Q: What about the “basal expression of SREBF1c” value ([7]; all three pancreatic cancer cell lines) of the same molecule?
A: induced

Q: And the “expression of LXR target genes” value [7]?
A: increased target gene expression

Q: And the “anti-tumor effects of PD-1 inhibitor immunotherapy” value [8]?
A: enhanced the anti-tumor effects of PD-1 inhibitor immunotherapy

Q: What about the “recruitment and apoptosis of immunosuppressive MDSCs” value [8] of the same molecule?
A: blocked the recruitment and increased apoptosis

Q: What about the “circulating and liver triglyceride levels” value [2] of the same molecule?
A: increased circulating and liver triglyceride levels

Q: Which “effect on non-cancerous pancreatic HPNE cells” value (HPNE cells) does the source give for `COc1cc(OC)cc(C(=O)N2CCN(c3ccccc3Br)CC2)c1` [KD-01-39] here?
A: minimal effect

Q: What about the “growth of KPC tumor cells” value (KPC tumor cells) of the same molecule?
A: inhibition of pancreatic cancer cells

Q: And the “expression of LXR target genes” value [7]?
A: decreased the expression of LXR target genes

Q: What about the “co-activator peptide binding to LXR ligand-binding domain” value ([9]; co-activator (D22) peptide) of the same molecule?
A: did not affect recruitment of co-activator peptides

Q: What about the “binding of NCOR and SMRT co-repressor peptides” value ([9]; co-repressor (NCOR and SMRT-ID2) peptides) of the same molecule?
A: enhanced recruitment of NCOR and SMRT co-repressor peptides in a dosage dependent manner

Q: What about the “LXR-LBD structure and dye dissociation with increasing temperature” value (LXR-LBD) of the same molecule?
A: disrupted the LBD structure

Q: What about the “efficacy against cancer lines compared with 3A4” value (PDAC cells [10]) of the same molecule?
A: same or similar efficacy as 3A4

Q: With `C[C@H](CCOc1cccc(CC(=O)O)c1)N(Cc1cccc(C(F)(F)F)c1Cl)CC(c1ccccc1)c1ccccc1` [RGX-104] as the molecule, how does the “anti-tumor effects of PD-1 inhibitor immunotherapy” value [8] read?
A: enhanced the anti-tumor effects of PD-1 inhibitor immunotherapy

Q: What about the “recruitment and apoptosis of immunosuppressive MDSCs” value [8] of the same molecule?
A: blocked the recruitment and increased apoptosis

Q: With `Cc1cc(C)c(S(=O)(=O)N(CCc2cccc(Br)c2)Cc2ccc(-c3cccc(S(C)(=O)=O)c3)cc2)c(C)c1` [SR9243] as the molecule, how does the “MDSC recruitment to tumors” value (MDSC and CD8+ T-cells) read?
A: decreased MDSC recruitment to tumors

Q: What about the “expansion and recruitment of tumor-killing CD8+ T-cells” value (MDSC and CD8+ T-cells) of the same molecule?
A: increased the expansion and recruitment

Q: Which “improvement of median survival” value (PDAC) does the source give for `Nc1ccn([C@@H]2O[C@H](CO)[C@@H](O)C2(F)F)c(=O)n1` [gemcitabine] here?
A: approximately two weeks
